One may read the GI50 as the concentration giving 50% growth inhibition.

This is an account of results in ChEMBL document CHEMBL1134411, “Antitumor benzothiazoles. 14. Synthesis and in vitro biological properties of fluorinated 2-(4-aminophenyl)benzothiazoles” (2001).

What all share (format): functional
Experiment [1] can be described thus: Growth inhibition against cancer cell line TH-10. Particulars: Homo sapiens, Cancer cell lines.
Experiment [2] relates to OVCAR-4. Nature of the experiment: Growth inhibition against ovarian cancer cell line OVCAR-4. Particulars: Homo sapiens.
Experiment [3] is described as follows: Growth inhibition against ovarian cancer cell line IGROV1. Particulars: Homo sapiens, IGROV-1.
Experiment [4] concerns NCI-H460. Nature of the experiment: Growth inhibition against non-small cell lung cancer cell line NCI-H460. Particulars: Homo sapiens.
Experiment [5] is described as follows: Mean GI50 values are recorded over the NCI 60-cell panel. Particulars: Homo sapiens.
For experiment [6], the system named is OVCAR-5. Nature of the experiment: Growth inhibition against ovarian cancer cell line OVCAR-5. Particulars: Homo sapiens.
Experiment [7] deals with MCF7. Nature of the experiment: Growth inhibition against breast cancer line MCF-7. Particulars: Homo sapiens.
Experiment [8] concerns NCI-H226. Nature of the experiment: Growth inhibition against non-small cell lung cancer cell line […]. Particulars: Homo sapiens.
The subject of experiment [9] is T47D. Nature of the experiment: Growth inhibition against breast cancer line T-47-D. Particulars: Homo sapiens.
The test system of experiment [10] is HCC 2998. Nature of the experiment: Growth inhibition against colon cancer cell line HCC2998. Particulars: Homo sapiens.

On to `Cc1cc(-c2nc3ccccc3s2)ccc1N`, for which the GI50 was below 10 nM in experiment [1]; 1100 nM in [2]; below 10 nM in [3]; 29500 nM in [4]; 12900 nM in [5]; 1900 nM in experiment [6]. Also, the GI50 in [7] was below 10 nM; in experiment [8], 18600 nM; in experiment [9] it was 20 nM.
As for `Cc1cc(-c2nc3ccc(O)cc3s2)ccc1N`, the GI50 in experiment [1] is 77600 nM; in [2], 37200 nM; in [3], 47900 nM; in experiment [5] it was 41700 nM; in experiment [6] it was 83200 nM; in [10] it was above 100000 nM. The GI50 was found to be 56200 nM in experiment [7], 60300 nM in [8] and 22400 nM in [9].
With `Nc1ccc(-c2nc3ccc(F)cc3s2)cc1`, the GI50 is 26300 nM in experiment [1]; 22900 nM in experiment [2]; 21300 nM in [3]; 24500 nM in experiment [4]; 30200 nM in [5]; 26900 nM in [6]. Besides, the figures for the GI50 in experiment [10], in experiment [7] and in experiment [8] were 17800 nM, below 10 nM and 46800 nM, respectively.
As to `Nc1ccc(-c2nc3cc(F)ccc3s2)cc1`, the GI50 was 11500 nM in experiment [1]; 13500 nM in experiment [2]; 11500 nM in experiment [3]; 870 nM in [4]; 23400 nM in experiment [5]; 29500 nM in experiment [6]. The GI50 was below 10 nM in [7], below 10 nM in [8] and 260 nM in experiment [9].
`Cc1cc(-c2nc3cc(F)ccc3s2)ccc1N`: the GI50 in experiment [1] was below 10 nM; in experiment [2], below 10 nM; in experiment [3], below 10 nM; in [4] it was 50 nM; in experiment [5] it was 4400 nM; in experiment [6] it was below 10 nM. In addition, the concentration for 50% growth inhibition (GI50) was below 10 nM in experiment [7], 1300 nM in experiment [8] and below 10 nM in experiment [9].
`Nc1ccc(-c2nc3cc(F)ccc3s2)cc1Br`: the GI50 was 50 nM in experiment [1]; 24000 nM in experiment [2]; below 10 nM in experiment [3]; 110 nM in experiment [4]; 5100 nM in experiment [5]; 50 nM in experiment [6]. In addition, the GI50 in experiment [10] was below 10 nM; in experiment [7], below 10 nM; in experiment [8] it was 130 nM; in [9], 20 nM.
As to `Cc1cc(-c2nc3cccc(F)c3s2)ccc1N`, the concentration for 50% growth inhibition (GI50) worked out at 40 nM in experiment [1]; 7400 nM in experiment [2]; 70 nM in experiment [3]; 4200 nM in experiment [4]; 20000 nM in experiment [5]; 1300 nM in experiment [6]. Further, the results for the GI50 in [10], in experiment [7] and in experiment [9] were 13800 nM, below 10 nM and 20 nM, respectively.
`Nc1ccc(-c2nc3ccc(F)cc3s2)cc1Cl`: the concentration for 50% growth inhibition (GI50) is below 10 nM in [1]; 20 nM in experiment [2]; below 10 nM in experiment [3]; 100 nM in experiment [4]; 22300 nM in experiment [5]; 70 nM in experiment [6]. The GI50 in experiment [10] is 90 nM; in experiment [7], below 10 nM; in [8], 14100 nM.
`Nc1ccc(-c2nc3cc(F)ccc3s2)cc1I`: the GI50 is 70 nM in experiment [1]; below 10 nM in [2]; below 10 nM in experiment [3]; 7600 nM in experiment [5]; 280 nM in experiment [6]; below 10 nM in experiment [10]. The 50% growth inhibitory concentration (GI50) in [7] is below 10 nM; in experiment [8], 10200 nM; in experiment [9], 130 nM.
For `Cc1cc(-c2nc3cc(F)c(F)cc3s2)ccc1N`, the concentration for 50% growth inhibition (GI50) in experiment [1] was below 10 nM; in [2], 60300 nM; in experiment [3] it was below 10 nM; in [4], above 100000 nM; in [5] it was 67600 nM; in experiment [6] it was above 100000 nM. Besides, the GI50 in experiment [10] was above 100000 nM; in experiment [7] it was below 10 nM; in [9], below 10 nM.
In the case of `Nc1ccc(-c2nc3ccc(F)cc3s2)cc1I`, the concentration for 50% growth inhibition (GI50) in [1] was below 10 nM; in experiment [2], 30 nM; in experiment [3], below 10 nM; in experiment [4], above 100000 nM; in experiment [5], 33900 nM; in experiment [6], 100 nM. The concentration for 50% growth inhibition (GI50) in experiment [10] is 320 nM; in [7], below 10 nM; in experiment [8], 70 nM; in experiment [9], below 10 nM.
Regarding `Nc1ccc(-c2nc3ccccc3s2)cc1F`, the 50% growth inhibitory concentration (GI50) in [1] is below 10 nM; in [2] it was 18600 nM; in [3], below 10 nM; in [4], below 10 nM; in [5], 14500 nM; in experiment [6], below 10 nM. Also, the 50% growth inhibitory concentration (GI50) in experiment [10] was 100 nM; in experiment [7], below 10 nM; in experiment [8], below 10 nM; in [9], below 10 nM.
`Nc1ccc(-c2nc3cc(F)ccc3s2)cc1Cl`: the GI50 in experiment [2] was 320 nM; in [3] it was below 10 nM; in [4], 40 nM; in experiment [5], 5800 nM; in experiment [6], below 10 nM; in [7] it was below 10 nM. Further, the values for the 50% growth inhibitory concentration (GI50) in experiment [8] and in experiment [9] were 30 nM and 40 nM, respectively.
As for `Cc1cc(-c2nc3c(F)cccc3s2)ccc1N`, the 50% growth inhibitory concentration (GI50) in experiment [2] is 20900 nM; in experiment [3], 22900 nM; in experiment [4] it was 1000 nM; in experiment [5], 34600 nM; in experiment [6], 1700 nM; in [10], above 100000 nM. The 50% growth inhibitory concentration (GI50) was below 10 nM in [7], 5500 nM in experiment [8] and below 10 nM in experiment [9].
On to `Nc1ccc(-c2nc3ccccc3s2)cc1C(F)(F)F`, for which the GI50 is 13200 nM in experiment [1]; 15800 nM in experiment [2]; 2600 nM in experiment [3]; 14500 nM in experiment [4]; 14100 nM in [5]; 17400 nM in experiment [6]. Besides, the GI50 in [10] was 10700 nM; in experiment [7], 1500 nM; in [8], 15100 nM; in [9], 5400 nM.
`Cc1cc(-c2nc3ccc(F)cc3s2)ccc1N`: the GI50 in [1] is below 10 nM; in [2], 10 nM; in experiment [3] it was 1300 nM; in [4], 100 nM; in experiment [5], 47900 nM; in experiment [6] it was above 100000 nM. Besides, the concentration for 50% growth inhibition (GI50) in experiment [10] was 34700 nM; in experiment [7], below 10 nM; in [8], 60300 nM.
